The values that follow come from patent publication US20240286998A1, “F[…], ANALOGUES THEREOF, AND METHODS USING SAME” (Saint Joseph's University, priority 2021, published 2024).

Like-named read-outs stand apart in the source and are kept apart here.

Data set [1] has as its system C57BL/6J mice. In words: Head-Twitch Response (HTR) in mice. It counts as in vivo. The following applies: for ED50: Mus musculus, ip, 0.5 h. Here is the method:
Male C57BL/6J mice (6-8 weeks old) were obtained from Jackson Laboratories (Bar Harbor, ME) and housed in a vivarium at the University of California San Diego, an AAALAC-approved animal facility that meets all federal and state requirements for care and treatment of laboratory animals. All animal experiments were carried out in accordance with NIH guidelines and were approved by the UCSD Institutional Animal Care and Use Committee. Mice were housed up to four per cage in a climate-controlled room on a reverse-light cycle (lights on at 1900 h, off at 0700 h). Animals were provided with ad libitum access to food and water, with the exception of during behavioral testing.
Testing was conducted between 1000 and 1800 h. Head movements were recorded using a head-mounted magnet and a magnetometer coil as described in Halberstadt et al. (Psychopharmacology, 2013, 227(4):727-739). For the head mounted magnet, mice were anesthetized, an incision was made in the scalp, and a neodymium magnet was attached to the dorsal surface of the cranium using dental cement. Following a 2-week recovery period, behavioral experiments were conducted in a well-lit room. At least 7 days occurred between sessions to avoid any carryover effects. Test substances (i.e., dimethyltryptamine (DMT), diethyltryptamine (DET), psilocybin, 6-fluoro-diethyltryptamine (6-F-DET), compounds 3-4, 6, 9, 12-13, 22, 33, 41, 69, 88, 166, and 178) were administered intraperitoneally (IP) at a volume of 5 mL/kg. Mice were treated with vehicle (saline) or 6 doses of the test compound and then placed in a glass cylinder surrounded by a magnetometer coil and tested for 30 min. Coil voltage was filtered (1 kHz lowpass), digitized (20 kHz sampling rate) and saved to disk using a Powerlab/8SP with LabChart v 7.3.2 (ADInstruments, Colorado Springs, CO).
The entire 30 min recordings were examined for head twitches. Established procedures based on artificial intelligence were used to identify head twitches in the recordings (Scientific Reports, 2020, 10(1):1-12). HTR counts were analyzed using one-way analyses of variance (ANOVA), followed by post hoc pairwise comparisons between individual groups and vehicle using Dunnett's multiple comparisons test. […] Median effective doses (ED50 values) and 95% confidence intervals (95% CI) were calculated using nonlinear regression (Prism 9.0.2, GraphPad Software, San Diego, CA) (Table 4 and FIGS. 1-3).

Data set [2] has as its target Serotonin 5-HT2A (human) (Homo sapiens (Human), UniProt P28223). Description: 5-HT2A receptor binding, [3H]-ketanserin competition in membrane fractions. The following applies: 1 nM [3H]-ketanserin, Cheng-Prusoff, N=1-3.
Data set [3] addresses 5-HT2B (Homo sapiens (Human), UniProt P41595). In words: 5-HT2B Gq-mediated calcium flux functional assay. It counts as cell-based. The following applies: for 5-HT2B-Ca2+ FLUX Emax (% 5-HT): IA = Inactive, N=1-3. On the technique in general: Calcium flux is commonly read through the fluorescence of an indicator in the cells.
In data set [4] the target is 5-HT2C (Homo sapiens (Human), UniProt P28335). In words: 5-HT2C Gq-mediated calcium flux functional assay. In kind it is cell-based. As to conditions: for 5-HT2C-Ca2+ FLUX Emax (% 5-HT): IA = Inactive, N=1-3.
Data set [5] in a line: Metabolic stability in cryopreserved human hepatocytes. The following applies: cryopreserved hepatocytes, human hepatocytes, 1 μM, 37° C.; for hepatocyte CLint at 1 μM: read-out: Clint (μL/min/10^6 cells). It counts as in vitro ADME. Here is the method: (§1) The metabolic stability of a test compounds were assessed by monitoring disappearance of each compound in the presence of cryopreserved hepatocytes for up to 1 hour at 37° C. Following protein precipitation and centrifugation, the samples were analyzed by UPLC-MS-MS. Test Compound stock solutions (10 mM) were diluted 1 in 100 (2 μL 10 mM DMSO stock+198 μL 50:50 acetonitrile:water) to provide a 100 μM working solution. Following addition of test compounds to buffer, samples were pre-incubated at 37° C. for 5 minutes prior to initiating the incubation by the addition of test compounds to hepatocytes (these were held at 37° C. during pre-incubation period). Aliquots were sampled at 0, 5, 10, 20, 40 and 60 min and added to ice cold acetonitrile to terminate the reaction and precipitate proteins. All samples were mixed, centrifuged, and the supernatants were analyzed by UPLC-MS-MS using a Phenomenex Luna Omega […], C18 100 Å, 50×2.1 mm column. The final incubation conditions were as follows: hepatocytes 0.5×10^6 viable cells/mL, test compound 1 μM (n=1), acetonitrile concentration<0.01% (v/v) and DMSO concentration<0.01% (v/v). The intrinsic clearance (Clint) and half-life (T1/2) values are determined from the slope of the parent depletion curve. Positive control compounds with known metabolic clearance were included (diltiazem and naloxone).

For data set [6], the system named is human hepatocytes. Described as above. It counts as in vitro ADME. The following applies: qualitative statement. Here is the method: as §1
Data set [7] addresses 5-HT2A (Homo sapiens (Human), UniProt P28223). Description: 5-HT2A Gq-mediated calcium flux functional assay. In kind it is cell-based. As to conditions: for 5-HT2A-Ca2+ FLUX Emax (% 5-HT): IA = Inactive, N=1-3.
The target of data set [8] is 5-HT1A (Homo sapiens (Human), UniProt P08908). In words: 5-HT1A Gi/o-mediated cAMP inhibition, GloSensor assay. It counts as cell-based. The following applies: for 5-HT1A-cAMP Emax (% 5-HT): cAMP inhibition, 0.2 μM isoproterenol, IA = Inactive.
A short description of data set [9]: In vivo intravenous pharmacokinetic study in rats. More on the design: species or system Sprague Dawley rats. As to conditions: rat, mean; for Vd: iv, 1 mg/kg. Here is the method:
For the in vivo stability study described herein, 1 mg/kg of drug was administered by intravenous injection (i.e., dose volume 2 mL/kg, vehicle 5% DMSO:95% hydroxypropyl-beta-cyclodextrin (20% w/v in water)) to three male Sprague Dawley rats (˜300 g at time of dosing). Blood samples (˜240 μL) were collected via venipuncture at various time points (5, 15, 30, 60 120 240, 480 and 1,440 min) into K2EDTA-coated tubes. The samples were spun at 10,000 rpm (9,600×G) for 2 minutes. 100 μL of the resulting plasma was then collected and stored at −80° C. until analyzed by HPLC as described above.
Compound 3 administered intravenously (1 mg/kg); Vehicle: 5% DMSO, 95% 2-hydroxypropyl-β-cyclodextrin (HPBCD) (20% w/v in water); Plasma concentrations were quantified at multiple time points by UHPLC-MS-MS; N=3.

Data set [10] concerns C57BL/6J mice. The following applies: reported values of known 5HT2A agonists run under comparable conditions; dash = ED50 could not be estimated; cited from earlier work.
The mark [11] stands for this setting: read-out: HTR ED50 μmol/kg (95% CI).
[12] abbreviates: read-out: HTR ED50 mg/kg (95% CI).
Setting [13] is: male, Sprague Dawley, plasma, intravenous 1 mg/kg, N=3.

Sequence of 5-HT2C (P28335 whole entry, looked up): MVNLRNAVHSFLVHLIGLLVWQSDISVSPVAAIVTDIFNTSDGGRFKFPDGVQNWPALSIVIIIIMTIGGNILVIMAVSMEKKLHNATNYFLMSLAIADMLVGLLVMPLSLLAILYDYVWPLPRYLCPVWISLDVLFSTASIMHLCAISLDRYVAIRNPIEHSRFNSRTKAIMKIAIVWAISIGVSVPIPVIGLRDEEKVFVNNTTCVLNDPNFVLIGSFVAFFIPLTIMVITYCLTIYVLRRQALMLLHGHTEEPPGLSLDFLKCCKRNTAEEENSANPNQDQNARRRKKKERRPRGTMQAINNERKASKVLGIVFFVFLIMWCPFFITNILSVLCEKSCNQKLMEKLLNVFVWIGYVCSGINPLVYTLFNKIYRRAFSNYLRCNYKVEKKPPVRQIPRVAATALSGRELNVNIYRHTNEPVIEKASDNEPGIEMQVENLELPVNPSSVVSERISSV
Sequence of 5-HT2B (P41595 whole entry): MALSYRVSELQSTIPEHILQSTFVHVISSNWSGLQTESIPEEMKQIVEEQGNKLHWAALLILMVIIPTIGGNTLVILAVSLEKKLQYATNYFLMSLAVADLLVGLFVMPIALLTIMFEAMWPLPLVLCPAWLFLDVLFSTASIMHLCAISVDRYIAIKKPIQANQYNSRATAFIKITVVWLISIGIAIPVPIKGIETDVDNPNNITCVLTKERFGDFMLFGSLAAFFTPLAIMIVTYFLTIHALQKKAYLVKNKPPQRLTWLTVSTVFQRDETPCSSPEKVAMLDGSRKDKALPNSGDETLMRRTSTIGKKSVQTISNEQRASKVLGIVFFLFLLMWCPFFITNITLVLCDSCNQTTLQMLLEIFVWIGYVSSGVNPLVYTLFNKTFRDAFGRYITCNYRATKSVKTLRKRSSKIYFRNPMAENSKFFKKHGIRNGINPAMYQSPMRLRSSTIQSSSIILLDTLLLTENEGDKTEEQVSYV

`CCCN(CCc1c[nH]c2ccc(F)cc12)C(C)C` [Example 4, N-(2-(5-fluoro-1H-indol-3-yl)ethyl)-N-isopropylpropan-1-amine]: the ED50 in data set [1] (setting [11]) stood at 2.18 µmol/kg. Besides, the ED50 in [1] (setting [12]) was found to be 0.65 mg/kg. The “HTR counts over baseline / induction of HTR” value in data set [1] (compared to vehicle) was “significant increase”. Besides, the “5-HT2A pKi ± SEM” value in data set [2] came to 6.02 ± 0.07. Further, in data set [3], the EC50 was 0.759 nM and the “5-HT2B-Ca2+ FLUX Emax (% 5-HT)” value was 105.60 ± 0.7 % 5-HT. In data set [4], the 50% effective concentration (EC50) is 9.12 nM and the “5-HT2C-Ca2+ FLUX Emax (% 5-HT)” value is 74.6 ± 2.0 % 5-HT. For the same compound, in data set [5], the half-life at 1 μM is 13 min and the hepatocyte CLint at 1 μM was found to be 109 µL/min/1e6 cells. The “metabolism by human hepatocytes” value in data set [6] is “rapidly metabolized”. Besides, in [7], the EC50 is 0.468 nM and the “5-HT2A-Ca2+ FLUX Emax (% 5-HT)” value was determined as 99.5 ± 1.1 % 5-HT. In data set [8], the EC50 is 331 nM and the “5-HT1A-cAMP Emax (% 5-HT)” value is given as 80.5 ± 2.5 % 5-HT.

As for `CCC(C)N(C)CCc1c[nH]c2ccc(F)cc12` (centres unmarked) [Example 3, N-(2-(5-fluoro-1H-indol-3-yl)ethyl)-N-methylbutan-2-amine], the ED50 in data set [1] (setting [11]) turned out to be 6.28 µmol/kg. Moreover, the ED50 in data set [1] (setting [12]) was found to be 1.79 mg/kg. Besides, the “5-HT2A pKi ± SEM” value in data set [2] was 6.23 ± 0.30. Besides, in data set [3], the 50% effective concentration (EC50) is 9.12 nM and the “5-HT2B-Ca2+ FLUX Emax (% 5-HT)” value was found to be 37.5 ± 1.5 % 5-HT. In data set [9] (setting [13]), this compound yielded an AUC of 594 ng·h/mL, an AUC(0-inf) of 597 ng·h/mL, a C0 of 2490 ng/mL and a clearance of 29.5 mL/min/kg. The half-life in data set [9] (male, Sprague Dawley, plasma, intravenous 1 mg/kg, N=3, read-out: Half-Life (converted)) was 65.4 min. Also, in data set [9] (male, Sprague Dawley, plasma, N=3, read-out: Vss), the Vd amounted to 0.999 L/kg. Besides, the Vd in data set [9] (male, Sprague Dawley, plasma, N=3, read-out: Vz) was determined as 3.04 L/kg. Moreover, in [9] (intravenous 1 mg/kg, N=3), the “AUC % Extrapolation to C0” value is 27.7%, the “AUC % Extrapolation to Inf” value is 0.570% and the “half-life” value is 65.4 min. In [4], the concentration giving a half-maximal response (EC50) was 49 nM and the “5-HT2C-Ca2+ FLUX Emax (% 5-HT)” value is recorded as 56.0 ± 0.9 % 5-HT. Moreover, in data set [5], the half-life at 1 μM came out at 11 min and the hepatocyte CLint at 1 μM was found to be 132 µL/min/1e6 cells. Moreover, the “metabolism by human hepatocytes” value in data set [6] was “rapidly metabolized”. Besides, in data set [7], the EC50 was 3.72 nM and the “5-HT2A-Ca2+ FLUX Emax (% 5-HT)” value is given as 94.8 ± 0.8 % 5-HT. Besides, in [8], it took 3890 nM to reach a half-maximal effect (EC50) and the “5-HT1A-cAMP Emax (% 5-HT)” value is on record as 83.3 ± 5.7 % 5-HT.

In the case of `CN(C)CCc1c[nH]c2cccc(OP(=O)(O)O)c12` [Psilocybin], in data set [10], the “HTR ED50 μmol/kg (95% CI)” value is 1.40 µmol/kg and the “HTR ED50 mg/kg (95% CI)” value is recorded as 0.38 mg/kg.

By EC50 is commonly meant the midpoint of the concentration-response curve. In general, half-life refers to the time in which the quantity being followed falls by half. The term AUC denotes concentration integrated over time. Higher therefore signals high exposure. A word on the AUC(0-inf): it is total exposure, with the tail of the curve extrapolated. Broadly, the clearance is the rate of elimination divided by the concentration. High values mean a high capacity for elimination, low ones a low capacity for elimination.
